Read-outs that look alike come from different tables or passages of the source. Marks after values point to notes of the source that are not given here.
Key:
Myzus persicae = details: spray on Chinese cabbage leaf-disks, 500 g/ha, after 6 days
Description: Chinese cabbage (Brassica pekinesis) leaf-disks infected with all instars of the green peach aphid (Myzus persicae), are sprayed with a preparation of the active ingredient at the desired concentration. After 6 days mortality in % is determined. 100% means that all aphids have been killed; 0% means that none of the aphids have been killed.

Phaedon cochleariae = details: spray on Chinese cabbage leaf-disks, 500 g/ha, after 7 days
Description: • Solvent: 78.0 parts by weight of acetone • 1.5 parts by weight of dimethylformamide • Emulsifier: 0.5 parts by weight of alkylaryl polyglycolether
Chinese cabbage (Brassica pekinesis) leaf-disks are sprayed with a preparation of the active ingredient of the desired concentration. Once dry, the leaf disks are infested with mustard beetle larvae (Phaedon cochleariae). After 7 days mortality in % is determined. 100% means that all beetle larvae have been killed and 0% means that none of the beetle larvae have been killed.

Boophilus microplus = Boophilus microplus test (injection); type: in vivo; details: injection into adult engorged female ticks, 20 μg/animal, after 7 days
Description: Boophilus microplus—Test Injection)
• Solvent: dimethyl sulfoxide
Five adult engorged female ticks (Boophilus microplus) are injected with 1 μl compound solution into the abdomen. Ticks are transferred into replica plates and incubated in a climate chamber for a period of time. Egg deposition of fertile eggs is monitored. […] 100% means that all eggs are infertile; 0% means that all eggs are fertile.

[1] = preparation examples, HPLC method ([a], [b] or [c]) not stated

Q: For `CNC(=O)C(C#N)=C(NC(C)C1CC1)c1cccnc1Cl` (mixture of isomers) [Compound 1244], which “activity (mortality)” value (Myzus persicae) is on record?
A: 100%

Q: What does the source list for `CCOC(=O)C(C#N)=C(NC(C)c1nccs1)c1ncc(C(F)(F)F)cc1Cl` (racemic) [Compound 40]?
A: Log P (pH 2.7): 3.37^[a]; activity (mortality) (Phaedon cochleariae): 83%

Q: Which results are given for `CCOC(=O)C(C#N)=C(NC(C)c1nccs1)c1cccnc1SC` (racemic) [Compound 62]?
A: Log P (pH 7.5): 2.73; activity (mortality) (Myzus persicae): 100%

Q: Which “Log P” value (pH 2.3) does the source give for `CCOC(=O)C(C#N)=C(NC1CCCNC1=O)c1cccnc1Cl` (racemic) [Compound 239] here?
A: 1.67

Q: What about the “Log P” value (pH 7.5) of the same compound?
A: 1.6

Q: What about the “activity (mortality; 100% means all eggs infertile)” value (Boophilus microplus) of the same compound?
A: 100%

Q: For `CCC1CC1N/C(=C/C#N)c1cccnc1Cl` (centres unmarked) [3-(2-chloropyridin-3-yl)-3-[(2-ethylcyclopropyl)amino]acrylonitrile], which chromatographic logP [1] is on record?
A: 2.53

Q: For `N#CC=C(Cl)c1cccnc1Cl` [3-chloro-3-(2-chloropyridin-3-yl)acrylonitrile], which chromatographic logP [1] is on record?
A: 1.94

Q: What about the LogP [1] of the same compound?
A: 2.03

Q: For `CC(N/C(=C(/C#N)C(=O)NC1CC1)c1cn(C)nc1C(F)F)c1nccs1` (centres unmarked) [(2Z)-2-cyano-N-cyclopropyl-3-[3-(difluoromethyl)-1-methyl-1H-pyrazol-4-yl]-3-{[1-(1,3-thiazol-2-yl)ethyl]amino}acrylamide], which chromatographic logP [1] is on record?
A: 2.04

Q: Which chromatographic logP [1] does the source give for `CCNC(=S)/C(C#N)=C(\NC1CC1CC)c1cccnc1Cl` (centres unmarked) [(2Z)-3-(2-chloropyridin-3-yl)-2-cyano-N-ethyl-3-[(2-ethylcyclopropyl)amino]-prop-2-enethioamide] here?
A: 3.87

Q: For `CC(N/C(=C(/C#N)C(=O)O)c1sccc1Br)c1nccs1` (centres unmarked) [(2Z)-3-(3-bromo-2-thienyl)-2-cyano-3-{[1-(1,3-thiazol-2-yl)ethyl]amino}acrylic acid], which chromatographic logP [1] is on record?
A: 1.23

Q: For `CSCC(C)NC(=C(C#N)C(=O)OC(C)C)c1cccnc1Cl` (centres unmarked) [Compound 597], which “Log P” value (pH 7.5) is on record?
A: 3.03

Q: What about the “activity (mortality)” value (Myzus persicae) of the same compound?
A: 90%

Q: With `CCOC(=O)C(C#N)=C(NC(C)C(=O)NC)c1ncc(C(F)(F)F)cc1Cl` (centres unmarked) [Compound 600] as the compound, how does the “Log P” value (pH 2.7) read?
A: 2.41^[a]

Q: And the “activity (mortality)” value (Myzus persicae)?
A: 100%

Q: Which results are given for `CC(C)NC(=O)C(C#N)=C(NC(C)C(C)C)c1cccnc1Cl` (centres unmarked) [Compound 957]?
A: Log P (pH 2.3): 3.37; Log P (pH 7.5): 3.39; activity (mortality) (Phaedon cochleariae): 100%

Q: With `C#CC(C)(C)NC(=C(C#N)C(=O)OC)c1cccnc1Cl` [Compound 1028] as the compound, how does the “Log P” value (pH 2.7) read?
A: 2.23^[a]

Q: And the “activity (mortality)” value (Phaedon cochleariae)?
A: 83%

Q: For `CCOC(=O)C(C#N)=C(NC(C)C(C)C)c1cccnc1-c1ccc(Cl)c(Cl)c1` (centres unmarked) [Compound 1475], which “Log P” value (pH 2.3) is on record?
A: 4.56^[c]; 4.56^[b]

Q: And the “Log P” value (pH 7.5)?
A: 4.56^[c]; 4.56^[b]

Q: And the “activity (mortality)” value (Phaedon cochleariae)?
A: 100%

Q: Which results are given for `CCOC(=O)C(C#N)=C(NC(C)C(C)C)c1cccnc1-c1cncnc1` (centres unmarked) [Compound 1591]?
A: Log P (pH 7.5): 2.42; activity (mortality) (Phaedon cochleariae): 100%

Q: Which chromatographic logP [1] does the source give for `CCOC(=O)C(C#N)=C(Cl)c1scc(C)c1Cl` [ethyl 3-chloro-3-(3-chloro-4-methyl-2-thienyl)-2-cyanoacrylate] here?
A: 3.65

Q: What about the LogP [1] of the same compound?
A: 3.70

Q: Which chromatographic logP [1] does the source give for `CCOC(=O)/C(C#N)=C(\NCC(c1ccccc1)C(C)C)c1cccnc1Cl` (centres unmarked) [ethyl (2Z)-3-(2-chloropyridin-3-yl)-2-cyano-3-[(3-methyl-2-phenylbutyl)amino]acrylate] here?
A: 4.21

Q: For `CCOC(=O)/C(C#N)=C(\NCCc1ncc(C(F)(F)F)cc1Cl)c1cccnc1Cl` [ethyl (2Z)-3-(2-chloropyridin-3-yl)-3-({2-[3-chloro-5-(trifluoromethyl)pyridin-2-yl]ethyl}amino)-2-cyanoacrylate], which chromatographic logP [1] is on record?
A: 3.57

Q: For `CCOC(=O)/C(C#N)=C(\NC(C)c1ccc(Cl)nc1)c1cccnc1Cl` (centres unmarked) [ethyl (2Z)-3-(2-chloropyridin-3-yl)-3-{[1-(6-chloropyridin-3-yl)ethyl]amino}-2-cyanoacrylate], which chromatographic logP [1] is on record?
A: 2.8

Q: For `CCOC(=O)/C(C#N)=C(\N[C@H](C)C(=O)NC)c1scc(C)c1Cl` [ethyl (2Z)-3-(3-chloro-4-methyl-2-thienyl)-2-cyano-3-{[(2R)-1-(methylamino)-1-oxopropan-2-yl]amino}acrylate], which chromatographic logP [1] is on record?
A: 3.61

Q: With `CCN/C(=C(/C#N)C(=O)OCC)c1cccnc1-c1ccc(Cl)cc1` [ethyl (2Z)-3-[2-(4-chlorophenyl)pyridin-3-yl]-2-cyano-3-(ethylamino)acrylate] as the compound, how does the chromatographic logP [1] read?
A: 2.96

Reference: patent US8476197B2, “Aminopropenoates as fungicides” (priority 2009, dated 2013)
